Laboratory results from ChEMBL document CHEMBL5537127, “Design and synthesis of novel hederagonic acid analogs as potent anti-inflammatory compounds capable of protecting against LPS-induced acute lung injury” (Eur J Med Chem, 2024).
Calls of active or inactive are those of the source. The rule behind the calls is not given here.

What was measured:
[1] = Cytotoxicity against mouse RAW264.7 cells assessed as cell viability at 40 uM incubated for 24 hrs by MTT assay relative to control; format: toxicity, cell-based; conditions: read-out: Activity
[2] = system: RAW264.7; assay: Anti-inflammatory activity against LPS-induced mouse RAW264.7 cells assessed as inhibition of NO production at 10 uM preincubated for 2 hrs followed by LPS addition and measured after 24 hrs by Griess reagent-based microplate reader analysis relative to control; format: functional; set-up: scale not given: the % may be the effect or the level left; conditions: time 26 hrs
[3] = system: RAW264.7; assay: Anti-inflammatory activity against LPS-induced mouse RAW264.7 cells assessed as inhibition of NO production at 20 uM preincubated for 2 hrs followed by LPS addition and measured after 24 hrs by Griess reagent-based microplate reader analysis relative to control; format: functional; set-up: scale not given: the % may be the effect or the level left; conditions: time 26 hrs
[4] = target: T1, Stimulator of interferon genes protein (Mus musculus) (UniProt Q3TBT3); assay: Binding affinity to STING in mouse RAW264.7 cells assessed as reduction in protein degradation at 40 uM at 40 to 61 degreeC incubated for 12 hrs by thermal shift assay; format: cell-based
T1 sequence (whole entry): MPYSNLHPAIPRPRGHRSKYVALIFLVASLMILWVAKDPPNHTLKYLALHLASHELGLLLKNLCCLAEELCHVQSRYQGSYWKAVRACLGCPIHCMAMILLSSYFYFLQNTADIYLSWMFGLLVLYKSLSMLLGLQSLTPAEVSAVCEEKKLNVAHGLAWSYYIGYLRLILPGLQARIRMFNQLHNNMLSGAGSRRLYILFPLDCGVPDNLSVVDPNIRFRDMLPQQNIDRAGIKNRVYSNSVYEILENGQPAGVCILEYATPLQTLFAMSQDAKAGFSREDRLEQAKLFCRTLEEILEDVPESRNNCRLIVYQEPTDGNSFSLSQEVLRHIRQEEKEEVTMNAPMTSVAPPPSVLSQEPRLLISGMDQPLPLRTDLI

[5] = target: T1, Stimulator of interferon genes protein (Mus musculus); assay: Binding affinity to STING in mouse RAW264.7 cells assessed as protein stabilization at 49 degreeC incubated for 12 hrs by thermal shift assay; format: cell-based; conditions: dose 0.4-40 µM
[6] = target: T1, Stimulator of interferon genes protein (Mus musculus); assay: Binding affinity to STING in mouse RAW264.7 cells assessed as inhibition of protein degradation at 4 to 40 uM at 49 degreeC incubated for 12 hrs by thermal shift assay; format: cell-based; conditions: dose 4-40 µM
[7] = system: RAW264.7; assay: Anti-inflammatory activity against LPS-induced mouse RAW264.7 cells assessed as inhibition of p65 nuclear translocation at 5 uM preincubated for 2 hrs followed by LPS addition and measured after 2 hrs by FITC/DAPI staining based laser confocal microscopy analysis; format: functional, cell-based; conditions: time 4.0 hrs
[8] = system: RAW264.7; assay: Anti-inflammatory activity against LPS-induced mouse RAW264.7 cells assessed as inhibition of IRF3 nuclear translocation at 5 uM preincubated for 2 hrs followed by LPS addition and measured after 2 hrs by FITC/DAPI staining based laser confocal microscopy analysis; format: functional, cell-based; conditions: time 4.0 hrs
[9] = system: RAW264.7; assay: Anti-inflammatory activity against LPS-induced mouse RAW264.7 cells assessed as decrease in IL-6 expression at 1.25 to 5 uM preincubated for 2 hrs followed by LPS addition and measured after 12 hrs by ELISA; format: functional, cell-based; conditions: dose 1.25-5 µM, time 14.0 hrs
[10] = system: RAW264.7; assay: Anti-inflammatory activity against LPS-induced mouse RAW264.7 cells assessed as decrease in TNF-alpha expression at 1.25 to 5 uM preincubated for 2 hrs followed by LPS addition and measured after 12 hrs by ELISA; format: functional, cell-based; conditions: dose 1.25-5 µM, time 14.0 hrs
[11] = system: RAW264.7; assay: Anti-inflammatory activity against LPS-induced mouse RAW264.7 cells assessed as decrease in IFN-beta expression at 1.25 to 5 uM preincubated for 2 hrs followed by LPS addition and measured after 12 hrs by ELISA; format: functional, cell-based; conditions: dose 1.25-5 µM, time 14.0 hrs
[12] = system: RAW264.7; assay: Anti-inflammatory activity against LPS-induced mouse RAW264.7 cells assessed as decrease in TBK1 phosphorylation at 1.25 to 5 uM by Western blotting analysis; format: functional, cell-based; conditions: dose 1.25-5 µM
[13] = system: RAW264.7; assay: Anti-inflammatory activity against LPS-induced mouse RAW264.7 cells assessed as decrease in IRF3 phosphorylation at 1.25 to 5 uM by Western blotting analysis; format: functional, cell-based; conditions: dose 1.25-5 µM
[14] = system: RAW264.7; assay: Anti-inflammatory activity against LPS-induced mouse RAW264.7 cells assessed as decrease in p65 phosphorylation at 1.25 to 5 uM by Western blotting analysis; format: functional, cell-based; conditions: dose 1.25-5 µM
[15] = system: RAW264.7; assay: Anti-inflammatory activity against LPS-induced mouse RAW264.7 cells assessed as decrease in IkappaB phosphorylation at 1.25 to 5 uM by Western blotting analysis; format: functional, cell-based; conditions: dose 1.25-5 µM
[16] = system: RAW264.7; assay: Anti-inflammatory activity against LPS-induced mouse RAW264.7 cells assessed as decrease in STING protein level at 1.25 to 5 uM by Western blotting analysis; format: functional, cell-based; conditions: dose 1.25-5 µM
[17] = system: Mus musculus; assay: Anti-inflammatory activity against LPS-stimulated BALB/c mouse acute lung injury model assessed as decrease in pulmonary edema in lung tissue at 1.25 to 5 mg/kg, po administered for 3 days by hematoxylin and eosin staining based analysis; format: functional, organism-based; conditions: dose 1.25-5 mg/kg, time 3.0 day
[18] = system: Mus musculus; assay: Anti-inflammatory activity against LPS-stimulated BALB/c mouse acute lung injury model assessed as decrease in MDA level in lung tissue at 1.25 to 5 mg/kg, po administered for 3 days by colorimetric method; format: functional, organism-based; conditions: dose 1.25-5 mg/kg, time 3.0 day
[19] = system: Mus musculus; assay: Anti-inflammatory activity against LPS-stimulated BALB/c mouse acute lung injury model assessed as increase in SOD level in lung tissue at 1.25 to 5 mg/kg, po administered for 3 days by colorimetric method; format: functional, organism-based; conditions: dose 1.25-5 mg/kg, time 3.0 day
[20] = system: Mus musculus; assay: Anti-inflammatory activity against LPS-stimulated BALB/c mouse acute lung injury model assessed as decrease in STING expression at 1.25 to 5 mg/kg, po administered for 3 days by Western blotting analysis; format: functional, organism-based; conditions: dose 1.25-5 mg/kg, time 3.0 day
[21] = system: Mus musculus; assay: Anti-inflammatory activity against LPS-stimulated BALB/c mouse acute lung injury model assessed as decrease in TBK1 phosphorylation at 1.25 to 5 mg/kg, po administered for 3 days by Western blotting analysis; format: functional, organism-based; conditions: dose 1.25-5 mg/kg, time 3.0 day
[22] = system: Mus musculus; assay: Anti-inflammatory activity against LPS-stimulated BALB/c mouse acute lung injury model assessed as decrease in IRF3 phosphorylation at 1.25 to 5 mg/kg, po administered for 3 days by Western blotting analysis; format: functional, organism-based; conditions: dose 1.25-5 mg/kg, time 3.0 day
[23] = system: Mus musculus; assay: Anti-inflammatory activity against LPS-stimulated BALB/c mouse acute lung injury model assessed as decrease in p65 phosphorylation at 1.25 to 5 mg/kg, po administered for 3 days by Western blotting analysis; format: functional, organism-based; conditions: dose 1.25-5 mg/kg, time 3.0 day
[24] = system: Mus musculus; assay: Anti-inflammatory activity against LPS-stimulated BALB/c mouse acute lung injury model assessed as decrease in IkappaB phosphorylation at 1.25 to 5 mg/kg, po administered for 3 days by Western blotting analysis; format: functional, organism-based; conditions: dose 1.25-5 mg/kg, time 3.0 day
[25] = system: Mus musculus; assay: Anti-inflammatory activity against LPS-stimulated BALB/c mouse assessed as decrease in IL-6 level in BALF administered for 3 days by Western blotting analysis; format: functional, organism-based; conditions: dose 1.25-5 mg/kg, route po, time 3.0 day
[26] = system: Mus musculus; assay: Anti-inflammatory activity against LPS-stimulated BALB/c mouse assessed as decrease in TNF-alpha level in BALF administered for 3 days by Western blotting analysis; format: functional, organism-based; conditions: dose 1.25-5 mg/kg, route po, time 3.0 day
[27] = system: Mus musculus; assay: Anti-inflammatory activity against LPS-stimulated BALB/c mouse assessed as decrease in IFN-beta level in BALF administered for 3 days by Western blotting analysis; format: functional, organism-based; conditions: dose 1.25-5 mg/kg, route po, time 3.0 day

Activity [4]: Active | Activity [5]: Dose-Dependent Effect | Activity [6]: Active
Compound: CC1(C)CC[C@]2(C(=O)OCc3ccccc3)CC[C@]3(C)C(=CC[C@@H]4[C@@]5(C)CCC(=O)[C@@](C)(COC(=O)CCCNC(=O)CCCC[C@@H]6CCSS6)[C@@H]5CC[C@]43C)[C@@H]2C1
viability at 24 h, 40 µM [1]: 100% | Activity [2]: 69.78% | Activity [3]: 81.7% | Activity [7]: Active | Activity [8]: Active | Activity [9]: Active | Activity [10]: Active | Activity [11]: Active | Activity [12]: Active | Activity [13]: Active | Activity [14]: Active | Activity [15]: Active | Activity [16]: Active | Activity [17]: Active | Activity [18]: Active | Activity [19]: Active | Activity [20]: Active | Activity [21]: Active | Activity [22]: Active | Activity [23]: Active | Activity [24]: Active | Activity [25]: Dose-Dependent Effect | Activity [26]: Dose-Dependent Effect | Activity [27]: Dose-Dependent Effect
